Results published in ChEMBL document CHEMBL1201862, “PubChem BioAssay data set” (2004).
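In this assay, cells in 96-well plates receive the compound at five concentrations for 48 hours. Endpoints are linearly interpolated between the surrounding concentrations. GI50 marks 50% less growth.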 Calls of active or inactive are those of the source. Rule as the data show it: active = GI50 up to about 1.1 µM and inactive = higher.

Assays:
Assay in all cases: NCI tumour cell line growth inhibition, 48 h
[1] = tested on: CCRF-CEM
[2] = tested on: NCI-H226
[3] = tested on: SNB-75
[4] = tested on: HOP-62
[5] = tested on: EKVX
[6] = tested on: SF-268
[7] = tested on: SK-MEL-2
[8] = tested on: PC-3
[9] = tested on: SK-OV-3
[10] = tested on: OVCAR-4
[11] = tested on: 786-0
[12] = tested on: SR
[13] = tested on: M14
[14] = tested on: NCI/ADR-RES
[15] = tested on: OVCAR-5
[16] = tested on: HL-60
[17] = tested on: HT-29
[18] = tested on: NCI-H522
[19] = tested on: CAKI-1
[20] = tested on: OVCAR-3
[21] = tested on: MOLT-4
[22] = tested on: MDA-MB-435
[23] = tested on: BT-549
[24] = tested on: ACHN
[25] = tested on: HOP-92
[26] = tested on: RPMI-8226
[27] = tested on: SN12C
[28] = tested on: SF-539
[29] = tested on: SF-295
[30] = tested on: DU-145
[31] = tested on: MCF7
[32] = tested on: UO-31
[33] = tested on: MDA-N
[34] = tested on: Hs-578T
[35] = tested on: HCT-116
[36] = tested on: T47D
[37] = tested on: K562
[38] = tested on: LOX IMVI
[39] = tested on: SK-MEL-28
[40] = tested on: U-251
[41] = tested on: HCC 2998
[42] = tested on: NCI-H23
[43] = tested on: TK-10
[44] = tested on: COLO 205
[45] = tested on: UACC-257
[46] = tested on: SK-MEL-5
[47] = tested on: A549
[48] = tested on: UACC-62
[49] = tested on: OVCAR-8
[50] = tested on: MDA-MB-231
[51] = tested on: IGROV-1
[52] = tested on: NCI-H460
[53] = tested on: RXF 393
[54] = tested on: KM12
[55] = tested on: SW-620
[56] = tested on: A498
[57] = tested on: HCT-15
[58] = tested on: Malme-3M
[59] = tested on: SNB-19

Measured: GI50

COc1ccc(CCNC(=O)Cc2cc(OC)c(OC)cc2CO)cc1OC
inactive: [1] > 100 µM | [2] > 100 µM | [3] > 100 µM | [4] > 100 µM | [5] > 100 µM | [6] > 100 µM | [7] > 100 µM | [8] > 100 µM | [9] > 100 µM | [10] > 100 µM | [11] > 100 µM | [12] > 100 µM | [13] > 100 µM | [14] > 100 µM | [15] > 100 µM | [16] > 100 µM | [17] > 100 µM | [18] > 100 µM | [19] > 100 µM | [20] > 100 µM | [21] > 100 µM | [22] > 100 µM | [23] > 100 µM | [24] > 100 µM | [25] > 100 µM | [26] > 100 µM | [27] > 100 µM | [28] > 100 µM | [29] > 100 µM | [30] > 100 µM | [31] > 100 µM | [32] > 100 µM | [33] > 100 µM | [34] > 100 µM | [35] > 100 µM | [36] > 100 µM | [37] > 100 µM | [38] > 100 µM | [39] > 100 µM | [40] > 100 µM | [41] > 100 µM | [42] > 100 µM | [43] > 100 µM | [44] > 100 µM | [45] > 100 µM | [46] > 100 µM | [47] > 100 µM | [48] > 100 µM | [49] > 100 µM | [50] > 100 µM | [51] > 100 µM | [52] > 100 µM | [53] > 100 µM | [54] > 100 µM | [55] > 100 µM | [56] > 100 µM
> 100 µM: [57]

C#CC(O)/C=C/CCCCCCC#CC/C=C\CC#CCCCCCCCCC(O)C#C (stereo not given)
3.27 µM: [57]
active: [1] 0.0836 µM | [13] 1.11 µM | [18] 0.174 µM | [21] 0.27 µM | [32] 0.667 µM | [38] < 0.01 µM | [42] 1.02 µM | [51] 0.407 µM
inactive: [2] 15.6 µM | [3] 9.1 µM | [4] 4.27 µM | [5] 3.51 µM | [6] 9.59 µM | [7] 2.59 µM | [8] 14.3 µM | [9] 17.6 µM | [10] 4.19 µM | [11] 2.08 µM | [12] 2.37 µM | [14] 3.39 µM | [15] 12.8 µM | [16] 1.74 µM | [17] 2.74 µM | [19] 4.29 µM | [20] 10.1 µM | [22] 2.53 µM | [23] 6.71 µM | [24] 12.2 µM | [25] 1.8 µM | [27] 1.99 µM | [28] 20.8 µM | [29] 15.1 µM | [30] 5.83 µM | [31] 17.4 µM | [33] 1.99 µM | [34] 20.6 µM | [58] 1.95 µM | [35] 2.28 µM | [36] 10.5 µM | [37] 3.14 µM | [39] 3.42 µM | [40] 20.5 µM | [41] 3.63 µM | [59] 20 µM | [43] 13.1 µM | [44] 2.58 µM | [45] 3.35 µM | [46] 2.68 µM | [47] 8.43 µM | [48] 9.08 µM | [49] 1.91 µM | [50] 3.32 µM | [52] 17.1 µM | [53] 14.6 µM | [54] 3.05 µM | [55] 3.5 µM | [56] 12.6 µM
